In US20110086759A1, “CHEMICAL COMPOUNDS” (SYNGENTA CROP PROTECTION, INC., priority 2007, published 2011):

Assays:
Type in all cases: in vivo
[1] = system: Alopecurus myosuroides (ALOMY); assay: Pre-emergence biological efficacy, glasshouse pot test; conditions: 312 h, pre-emergence, 1,000 g/ha, evaluated after 13 days (100=total damage; 0=no damage), read-out: Percentage damage ALOMY
Protocol: (§1) Seeds of Alopecurus myosuroides (ALOMY), Setaria faberi (SETFA), Echinochloa crus-galli (ECHCG), Solanum nigrum (SOLNI), Amaranthus retoflexus (AMARE) and Ipomea hederaceae (IPOHE) were sown in standard soil in pots. After cultivation for one day under controlled conditions in a glasshouse (at 24/16° C., day/night; 14 hours light; 65% humidity), the plants were sprayed with an aqueous spray solution derived from the formulation of the technical active ingredient in acetone/water (50:50) solution containing 0.5% Tween 20 (polyoxyethelyene sorbitan monolaurate, CAS RN 9005-64-5) to give a final dose of 1000 or 250 g/ha of test compound.
(§2) The test plants were then grown under controlled conditions in the glasshouse (at 24/16° C., day/night; 14 hours light; 65% humidity) and watered twice daily. After 13 days the test was evaluated (100=total damage to plant; 0=no damage to plant).

[2] = system: Solanum nigrum (SOLNI); assay: as above; conditions: 312 h, pre-emergence, 1,000 g/ha, evaluated after 13 days (100=total damage; 0=no damage), read-out: Percentage damage SOLNI
Protocol: as §1, §2

[3] = system: Setaria faberi (SETFA); assay: as above; conditions: 312 h, pre-emergence, 1,000 g/ha, evaluated after 13 days (100=total damage; 0=no damage), read-out: Percentage damage SETFA
Protocol: as §1, §2

[4] = system: Ipomea hederaceae (IPOHE); assay: as above; conditions: Ipomoea hederacea, 312 h; pre-emergence, 1,000 g/ha, evaluated after 13 days (100=total damage; 0=no damage); read-out: Percentage damage IPOHE
Protocol: as §1, §2

[5] = system: Amaranthus retoflexus (AMARE); assay: as above; conditions: Amaranthus retroflexus, 312 h; pre-emergence, 1,000 g/ha, evaluated after 13 days (100=total damage; 0=no damage); read-out: Percentage damage AMARE
Protocol: as §1, §2

[6] = system: Echinochloa crus-galli (ECHCG); assay: as above; conditions: 312 h, pre-emergence, 1,000 g/ha, evaluated after 13 days (100=total damage; 0=no damage), read-out: Percentage damage ECHCG
Protocol: as §1, §2

[7] = system: Alopecurus myosuroides (ALOMY); assay: Post-emergence biological efficacy, glasshouse pot test; conditions: 312 h, post-emergence, 1,000 g/ha, evaluated after 13 days (100=total damage; 0=no damage), read-out: Percentage damage caused to weed species, ALOMY
Protocol: as §1, with “8 days” for “one day”
(§3) The test plants were then grown on under controlled conditions in a glasshouse (at 24/16° C., day/night; 14 hours light; 65% humidity) and watered twice daily. After 13 days the test was evaluated (100=total damage to plant; 0=no damage to plant).

[8] = system: Solanum nigrum (SOLNI); assay: as above; conditions: 312 h, post-emergence, 1,000 g/ha, evaluated after 13 days (100=total damage; 0=no damage), read-out: Percentage damage caused to weed species, SOLNI
Protocol: as §1, with “8 days” for “one day”
as §3

[9] = system: Setaria faberi (SETFA); assay: as above; conditions: 312 h, post-emergence, 1,000 g/ha, evaluated after 13 days (100=total damage; 0=no damage), read-out: Percentage damage caused to weed species, SETFA
Protocol: as §1, with “8 days” for “one day”
as §3

[10] = system: Ipomea hederaceae (IPOHE); assay: as above; conditions: Ipomoea hederacea, 312 h; post-emergence, 1,000 g/ha, evaluated after 13 days (100=total damage; 0=no damage); read-out: Percentage damage caused to weed species, IPOHE
Protocol: as §1, with “8 days” for “one day”
as §3

[11] = system: Amaranthus retoflexus (AMARE); assay: as above; conditions: Amaranthus retroflexus, 312 h; post-emergence, 1,000 g/ha, evaluated after 13 days (100=total damage; 0=no damage); read-out: Percentage damage caused to weed species, AMARE
Protocol: as §1, with “8 days” for “one day”
as §3

[12] = system: Echinochloa crus-galli (ECHCG); assay: as above; conditions: 312 h, post-emergence, 1,000 g/ha, evaluated after 13 days (100=total damage; 0=no damage), read-out: Percentage damage caused to weed species, ECHCG
Protocol: as §1, with “8 days” for “one day”
as §3

Structure (SMILES)	pest or weed control at 1000 g/ha [1]	pest or weed control at 1000 g/ha [2]	pest or weed control at 1000 g/ha [3]	pest or weed control at 1000 g/ha [4]	pest or weed control at 1000 g/ha [5]	pest or weed control at 1000 g/ha [6]	pest or weed control at 1000 g/ha [7]	pest or weed control at 1000 g/ha [8]	pest or weed control at 1000 g/ha [9]	pest or weed control at 1000 g/ha [10]	pest or weed control at 1000 g/ha [11]	pest or weed control at 1000 g/ha [12]
COC(=O)c1nc(C2CC2)nc(N[C@@H](C)C(=O)OCc2ccccc2)c1Cl [4-272 (S), 5-Chloro-2-cyclopropyl-6-methoxycarbonyl-4-[(1S)-1-(phenylmethoxy-carbonyl)ethylamino]-pyrimidine]	10%	80%	20%	70%	70%	30%	20%	80%	60%	60%	100%	30%
COC(=O)c1nc(C2CC2)nc(N[C@@H](CO)Cc2ccccc2)c1Cl [4-273 (R), 5-Chloro-2-cyclopropyl-4-[(1R)-1-hydroxymethyl-2-phenyl-ethylamino]-6-methoxycarbonyl-pyrimidine]	50%	80%	70%	100%	80%	60%	30%	90%	60%	90%	100%	60%
COC(=O)c1nc(C2CC2)nc(N[C@H](CO)Cc2ccccc2)c1Cl [4-273 (S), 5-Chloro-2-cyclopropyl-4-[(1S)-1-hydroxymethyl-2-phenyl-ethylamino]-6-methoxy-carbonylpyrimidine]	40%	90%	80%	90%	100%	60%	50%	100%	70%	90%	100%	60%
COC(=O)c1nc(C2CC2)nc(N[C@H](CO)[C@H](O)c2ccc([N+](=O)[O-])cc2)c1Cl [4-275 (R,R), 5-Chloro-2-cyclopropyl-4-[(1R, 2R)-2-hydroxy-1-hydroxymethyl-2-(4-nitrophenyl)-ethylamino]-6-methoxycarbonyl-pyrimidine]	70%	90%	70%	100%	100%	60%	30%	100%	80%	100%	100%	70%
COC(=O)c1nc(C2CC2)nc(N[C@@H](CO)[C@@H](O)c2ccc([N+](=O)[O-])cc2)c1Cl [4-275 (S,S), 5-Chloro-2-cyclopropyl-4-[(1S, 2S)-2-hydroxy-1-hydroxymethyl-2-(4-nitrophenyl)-ethylamino]-6-methoxycarbonyl-pyrimidine]	30%	100%	60%	100%	100%	30%	40%	100%	80%	70%	100%	60%
COC(=O)c1nc(C2CC2)nc(N[C@H](CO)CSCc2ccccc2)c1Cl [4-276 (R), 5-Chloro-2-cyclopropyl-4-[(1R)-1-hydroxymethyl-2-phenylmethylthio-ethylamino]-6-methoxycarbonyl-pyrimidine]	20%	90%	30%	80%	100%	30%	20%	80%	40%	40%	100%	30%
COC(=O)c1nc(C2CC2)nc(N[C@H](c2ccccc2)[C@@H](O)c2ccccc2)c1Cl [4-280 (1R,2S), 5-Chloro-2-cyclopropyl-4-[(1R, 2S)-1,2-diphenyl-2-hydroxy-ethyl-amino]-6-methoxy-carbonylpyrimidine]	10%	80%	10%	90%	60%	20%	40%	80%	70%	70%	100%	50%
COC(=O)c1nc(C2CC2)nc(N[C@@H](c2ccccc2)[C@H](O)c2ccccc2)c1Cl [4-280 (1S,2R), 5-Chloro-2-cyclopropyl-4-[(1S, 2R)-1,2-diphenyl-2-hydroxy-ethylamino]-6-methoxycarbonyl-pyrimidine]	20%	90%	30%	80%	100%	40%	40%	100%	80%	100%	100%	60%
COC(=O)c1nc(C2CC2)nc(N[C@@H](CC2CCCCC2)C(=O)OC)c1Cl [4-282 (S), 5-Chloro-4-[(1S)-2-cyclohexyl-1-methoxycarbonyl-ethylamino]-2-cyclopropyl-6-methoxycarbonyl-pyrimidine]	10%	90%	20%	80%	90%	30%	20%	80%	60%	80%	100%	20%
